From paper PMC9495423, “Identification of the Natural Steroid Sapogenin Diosgenin as a Direct Dual-Specific RORα/γ Inverse Agonist” (Biomedicines, 2022)

Tests used:
RORγ = molecular target: T1, RORγ (Homo sapiens, UniProt P51449); assay: RORγ-Gal4 luciferase reporter assay in HEK293 cells (inverse agonism); full-length RORγ-RORE assay IC50 […]; format: cell-based
T1 construct: gene RORC; also full-length RORγ transcript variant 1
T1 sequence (P51449 265-507 limits assumed): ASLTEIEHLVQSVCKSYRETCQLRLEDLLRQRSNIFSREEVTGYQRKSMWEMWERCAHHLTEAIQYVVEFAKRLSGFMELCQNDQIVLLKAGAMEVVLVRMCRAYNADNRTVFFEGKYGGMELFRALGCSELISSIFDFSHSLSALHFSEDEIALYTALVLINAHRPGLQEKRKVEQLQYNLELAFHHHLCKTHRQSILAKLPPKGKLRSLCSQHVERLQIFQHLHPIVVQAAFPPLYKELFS

RORα = molecular target: T2, RORα (Homo sapiens, UniProt P35398); assay: RORα-Gal4 luciferase reporter assay in HEK293 cells (inverse agonism); format: cell-based
T2 construct: gene RORA; RORα-Gal4
T2 sequence (P35398 1-523): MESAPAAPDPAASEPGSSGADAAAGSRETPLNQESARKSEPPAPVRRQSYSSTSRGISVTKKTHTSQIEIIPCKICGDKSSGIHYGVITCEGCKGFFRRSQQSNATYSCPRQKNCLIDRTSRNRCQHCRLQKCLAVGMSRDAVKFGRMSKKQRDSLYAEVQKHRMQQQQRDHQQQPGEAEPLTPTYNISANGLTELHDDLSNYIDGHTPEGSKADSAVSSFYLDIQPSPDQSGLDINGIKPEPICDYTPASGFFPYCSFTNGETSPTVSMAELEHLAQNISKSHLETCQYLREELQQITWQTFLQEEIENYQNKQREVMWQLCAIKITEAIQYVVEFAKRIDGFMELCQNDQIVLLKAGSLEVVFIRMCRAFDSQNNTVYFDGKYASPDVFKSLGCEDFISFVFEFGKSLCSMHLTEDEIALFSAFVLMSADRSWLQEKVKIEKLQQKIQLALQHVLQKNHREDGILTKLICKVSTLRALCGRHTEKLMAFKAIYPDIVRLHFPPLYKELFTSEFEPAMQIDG

Molecule `C[C@@H]1CC[C@@]2(OC1)O[C@H]1C[C@H]3[C@@H]4CC=C5C[C@@H](O)CC[C@]5(C)[C@H]4CC[C@]3(C)[C@H]1[C@@H]2C` [diosgenin] has an IC50 (RORγ) of 1730 nM and an IC50 (RORα) of 2170 nM.
